For nine molecules, GI50 and IC50 results are on record in patent US8198279B2, “Pyrido[2,3-b]pyrazin-8-substituted compounds and their use” (Institute of Cancer Research: Royal Cancer Hospital (The), priority 2007, dated 2012).

A value given as a limit tells only on which side of the number the result lay.

One test relates to WM266.4 melanoma cells. The experiment in a line: SRB Cell Proliferation Assay (SRB GI50). The conditions noted are these: Homo sapiens, WM 266-4, 144 h, 6 days growth. The test is classed as cell-based. As for the experimental part: Biological Methods —SRB Cell Proliferation Assay (SRB GI50)
Cultures of WM266.4 melanoma cells are routinely cultured in DMEM/10% foetal bovine serum, at 37° C., in 5% CO2 water saturated atmosphere. Cultures are maintained in exponential growth phase by sub-culturing before having become confluent (3-5 day intervals). Single cell suspensions are prepared by harvesting an 80 cm^2 tissue culture flask with 5 mL commercial trypsin EDTA. After 5 minutes, the detached cells are mixed with 5 mL fully complemented culture medium and centrifugally pelleted (1000 rpm for 7 minutes). After aspirating the supernatant, the cell pellet is re-suspended in 10 mL fresh medium and the cells fully disaggregated by drawing the whole volume up/down 5 times through a 19-gauge needle. The concentration of the cells is determined using a haemocytometer (1/10 dilution). A suitable volume to give at least a 2-fold excess for the number of tests being conducted, typically 100-200 mL, is prepared by diluting the cell suspension to 10,000/mL, and 100 μL/well dispensed into 96 well plates using a programmable 8-channel peristaltic pump, giving 1000 cells/well, leaving column 12 blank. The plates are returned to the incubator for 24 hours to allow the cells to re-attach.
The compounds being tested are prepared at 20 mM in dimethylsulphoxide. Aliquots (200 μL) are diluted into 20 mL culture medium giving 200 μM, and 10 serial dilutions of 3× performed by transferring 5 mL to 10 mL. Aliquots (100 μL) of each dilution are added to the wells, using an 8-channel pipettor, thus performing a final further 2× dilution, and giving doses ranging from 100 μM to 0.005 μM. Column 11 receives plain culture medium only. Each compound is tested in quadruplicate, each replicate being the average of four wells, and two plates per compound.
After a further 6 days growth, the plates are emptied, and the cells are fixed in 10% trichloroacteic acid for 10 minutes on ice. After thorough rinsing in running tap water, the plates are dried, and stained by adding 50 μL of a solution of 0.1% sulphorhodamine-B in 1% acetic acid, for 10 minutes at room temperature. The stain is poured out and the plates thoroughly rinsed under a stream of 1% acetic acid, thus removing unbound stain, and dried. The bound stain is taken into solution by addition of 150 μL Tris buffer pH 8, followed by 10 minutes on a plate-shaker (approximately 500 rpm). The absorbance at 540 nm in each well (being proportional to the number of cells present) is determined using a plate reader.
After averaging the results in rows A-D and E-H, the blank value (row 12) is subtracted, and results expressed as percentage of the untreated value (row 11). […] The GI50 generated by this procedure is the concentration of the drug that produces a percentage control A540 midway between the saturation, and zero-effect plateaus.

The subject of the next test is pERK. The experiment in a line: Cell Based Phospho-ERK Assay. Conditions: 6 h, 6 hours incubation with test compound. As for the experimental part:
Biological Methods—Cell Based Phosho-ERK Assay
Compounds were assessed using a cell-based assay which was performed according to the following protocol.
Plate out 16,000 cells/well in 99 μL medium in a 96-well plate.
• 1. Add 1 μL inhibitor to the cells (total […] solution). • 2. Incubate the cells with test compound for 6 hours at 37° C. • 3. Aspirate off the solution from all of the wells. • 4. Fixate the cells with 100 μL 4% formaldehyde/0.25% Triton X-100 PBS per well. • 5. Incubate the plate for 1 hour at 4° C. • 6. Aspirate off the fixing solution and add 300 μL TBS per well. • 7. Leave the plate overnight at 4° C. Day 2: • 1. Wash the plate 2× with 200 μL PBS per well. • 2. Block with 100 μL 5% dried milk in TBS. • 3. Incubate the plate for 20 minutes at 37° C. • 4. Wash the plate 2× with 0.1% tween/H2O. • 5. Add 50 μL of 3 μg/mL primary antibody pERK (Sigma M8159), diluted in 5% milk powder/TBS, to each well. • 6. Incubate the plate for 2 hours at 37° C. • 7. Wash the plate 3× with 0.1% tween/H2O. • 8. Add 50 μL of 0.45 μg/mL secondary Europium-labelled anti-mouse antibody (Perkin Elmer) to each well. • 9. Incubate the plate for 1 hour at 37° C. • 10. Wash the plate 3× with 0.1% tween/H2O. • 11. Add 100 μL enhancement solution (Perkin Elmer) to each well. • 12. Leave the plate for approximately 10 minutes at room temperature before gently shaking the plate. • 13. Read Europium Time Resolved Fluorescence in Victor2. • 14. Wash the plate 2× with 0.1% tween/H2O. • 15. Measure the protein concentration with BCA (Sigma) by adding 200 μL of solution per well. • 16. Incubate the plate for 30 minutes at 37° C. • 17. Read absorbance levels at 570 nm in a plate reader.
Note that Europium counts are normalised for protein levels by dividing counts by absorbance.
Values for the blank (no cells) are subtracted from all values. The DMSO controls are set as 100% activity and assay points (the response) are calculated as a percentage of the DMSO control. Data are plotted using Graphpad Prism software and a non-linear regression line is calculated using a variable slope sigmoidal dose-response equation (Y=Bottom+(Top−Bottom)/(1+10^((LogEC50−X)*HillSlope)) where X is the logarithm of concentration. Y is the response). The IC50 generated by this procedure is the concentration of the drug that produces a percentage control fluorescence value midway between the saturation, and zero-effect plateaus. Three independent assays are usually performed and the mean IC50 is reported.

In a further test the target is T1, B-RAF (Homo sapiens, UniProt P15056, V600E).
T1 construct: made in house
T1 sequence (P15056 whole entry V600E): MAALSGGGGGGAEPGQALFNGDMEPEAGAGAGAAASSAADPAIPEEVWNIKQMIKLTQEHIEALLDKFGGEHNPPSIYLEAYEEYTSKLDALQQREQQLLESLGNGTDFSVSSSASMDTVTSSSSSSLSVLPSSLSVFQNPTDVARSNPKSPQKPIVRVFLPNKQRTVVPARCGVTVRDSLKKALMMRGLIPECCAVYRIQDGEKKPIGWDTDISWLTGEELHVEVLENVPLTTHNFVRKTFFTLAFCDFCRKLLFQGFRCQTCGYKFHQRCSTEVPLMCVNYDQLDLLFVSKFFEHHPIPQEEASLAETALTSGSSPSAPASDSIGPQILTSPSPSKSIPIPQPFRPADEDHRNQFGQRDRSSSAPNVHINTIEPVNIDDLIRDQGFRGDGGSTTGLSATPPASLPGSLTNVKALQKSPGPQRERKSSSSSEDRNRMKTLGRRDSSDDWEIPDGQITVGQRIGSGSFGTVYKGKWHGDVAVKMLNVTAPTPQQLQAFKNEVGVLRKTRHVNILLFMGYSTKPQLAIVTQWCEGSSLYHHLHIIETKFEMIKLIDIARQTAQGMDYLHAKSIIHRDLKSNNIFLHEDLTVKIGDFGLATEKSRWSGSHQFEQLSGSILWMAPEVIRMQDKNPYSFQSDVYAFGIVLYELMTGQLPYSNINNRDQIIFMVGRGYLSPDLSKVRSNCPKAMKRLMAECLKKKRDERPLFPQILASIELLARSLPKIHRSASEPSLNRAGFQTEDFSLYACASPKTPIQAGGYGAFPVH
Description: DELFIA Kinase Assay. It is filed as biochemical. The conditions noted are these: 100 μM ATP, GST-MEK substrate. The method in brief:
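Recombinant B-RAF (V600E) with GST-MEK substrate was preincubated with compound for 10 min at room temperature, then reacted with 100 μM ATP for 45 min on milk-preblocked wells, with antibody detection by DELFIA europium fluorescence. Response is taken as % of DMSO control after empty-vector blank subtraction; IC50 is from a variable-slope sigmoidal fit, mean of usually three independent runs.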

As for `C=CCn1nc(C(C)(C)C)cc1NC(=O)Nc1ccc(Oc2ccnc3[nH]c(=O)cnc23)cc1F` [AA-095, 5-[(4-amino-2-fluorophenyl-oxy)carbonylamino-5-(1-N-allyl-3-t-butyl-imidazolyl)]-pyridin-[2, 3]-3-pyrazin-2-one], the GI50 (commonly the concentration at which growth is held to half of that of the control) in the test with WM266.4 melanoma cells was 1 to 10 µM. The IC50 – broadly, the point on the concentration scale where inhibition reaches its midpoint – is less than 1 µM with pERK and less than 0.1 µM against B-RAF.
In the test with WM266.4 melanoma cells, `CC(C)(C)c1cc(NC(=O)Nc2ccc(Oc3ccnc4[nH]c(=O)cnc34)cc2F)n(CC2CC2)n1` [AA-097, 1-(3-Tert-butyl-1-(cyclopropylmethyl)-1H-pyrazol-5-yl)-3-(2-fluoro-4-(3-oxo-3,4-dihydropyrido[3,2-b]pyrazin-8-yloxy)phenyl)urea] had a GI50 of 1 to 10 µM. For the same molecule, the IC50 was less than 1 µM in the test on pERK and less than 0.1 µM on B-RAF.
In turn, `O=C(Nc1ccc(Oc2ccnc3[nH]c(=O)cnc23)cc1F)Nc1cc(C(F)(F)F)ccc1Oc1cccnc1` [AA-093, 1-(2-fluoro-4-(3-oxo-3,4-dihydropyrido[3,2-b]pyrazin-8-yloxy)phenyl)-3-(2-(pyridin-3-yloxy)-5-(trifluoromethyl)phenyl)urea] returned a 50% growth inhibitory concentration (GI50) in the test with WM266.4 melanoma cells of 1 to 10 µM. Further, the values for the IC50 with pERK and on B-RAF were less than 1 µM and less than 0.1 µM, respectively.
The molecule `CC(C)(C)c1cc(NC(=O)Nc2ccc(Oc3ccnc4[nH]c(=O)c(=O)[nH]c34)cc2F)n(-c2ccc(S(C)(=O)=O)cc2)n1` [AA-092, 1-(3-tert-butyl-1-(4-(methylsulfonyl)phenyl)-1H-pyrazol-5-yl)-3-(4-(2,3-dioxo-1,2,3,4-tetrahydropyrido[3,2-b]pyrazin-8-yloxy)-2-fluorophenyl)urea] registered a GI50 with WM266.4 melanoma cells of 1 to 10 µM. Moreover, the half-inhibitory concentration (IC50) in the test on pERK lay within 1 to 10 µM; against B-RAF, 0.1 to 1 µM.
`CC(C)(C)c1cc(NC(=O)Nc2ccc(Oc3ccnc4nc(N)c(=O)[nH]c34)c3ccccc23)n(-c2ccccc2)n1` [AA-081, 1-(4-(3-amino-2-oxo-1,2-dihydropyrido[2,3-b]pyrazin-8-yloxy)naphthalen-1-yl)-3-(3-tert-butyl-1-phenyl-1H-pyrazol-5-yl)urea] had a GI50 in the test on WM266.4 melanoma cells of less than 1 µM. Besides, the values for the IC50 in the test on pERK and against B-RAF were less than 1 µM and 0.1 to 1 µM, respectively.
In the test on WM266.4 melanoma cells, `COc1ccc(-n2nc(C(C)(C)C)cc2NC(=O)Nc2ccc(Oc3ccnc4[nH]c(=O)cnc34)cc2SC)cn1` [AA-063, 1-(3-tert-butyl-1-(6-methoxypyridin-3-yl)-1H-pyrazol-5-yl)-3-(2-(methylthio)-4-(3-oxo-3,4-dihydropyrido[2,3-b]pyrazin-8-yloxy)phenyl)urea] yielded a GI50 of less than 1 µM. Also, the IC50 in the test on pERK is less than 1 µM; at B-RAF, less than 0.1 µM.
In turn, `CSc1cc(Oc2ccnc3[nH]c(=O)cnc23)ccc1NC(=O)Nc1cc(C(C)(C)C)nn1-c1ccccc1` [AA-067, 1-(3-tert-butyl-1-phenyl-1H-pyrazol-5-yl)-3-(2-(methylthio)-4-(3-oxo-3,4-dihydropyrido[2,3-b]pyrazin-8-yloxy)phenyl)urea] returned a GI50 with WM266.4 melanoma cells of less than 1 µM. Also, the half-maximal inhibitory concentration (IC50) with pERK was less than 1 µM; on B-RAF, less than 0.1 µM.
For `CSc1cc(Oc2ccnc3[nH]c(=O)c(C)nc23)ccc1NC(=O)Nc1cc(C(C)(C)C)nn1-c1ccccc1` [AA-065, 1-(3-tert-butyl-1-phenyl-1H-pyrazol-5-yl)-3-(4-(2-methyl-3-oxo-3,4-dihydropyrido[2,3-b]pyrazin-8-yloxy)-2-(methylthio)phenyl)urea], in the test with WM266.4 melanoma cells, the GI50 was less than 1 µM. Further, the half-maximal inhibitory concentration (IC50) in the test with pERK was less than 1 µM; against B-RAF it was less than 0.1 µM.
For `O=C(Nc1ccc(Oc2ccnc3[nH]c(=O)cnc23)c(F)c1)Nc1cc(C(F)(F)F)ccc1F` [AA-086, 1-(3-fluoro-4-(3-oxo-3,4-dihydropyrido[2,3-b]pyrazin-8-yloxy)phenyl)-3-(2-fluoro-5-(trifluoromethyl)phenyl)urea], the concentration for 50% growth inhibition (GI50) with WM266.4 melanoma cells fell in the range of 1 to 10 µM. Besides, the IC50 is 1 to 10 µM in the test with pERK and less than 0.1 µM against B-RAF.
